From patent US20130317029A1 (PORTOLA PHARMACEUTICALS, INC., priority 2010, published 2013)
pIC50: −log10 of the molar value.

Target: T1, full length active recombinant SYK enzyme (Homo sapiens, UniProt P43405)
T1 construct: full length active recombinant SYK enzyme (Millipore, Calif.); purchased Millipore
Assay: Inhibition of Syk tyrosine phosphorylation activity (LANCE TR-FRET kinase assay)
Format: biochemical
From the text: This example illustrates methods for evaluating the compounds of the invention, along with results obtained for such assays. The in vitro and in vivo human Syk activities of the inventive compounds can be determined by various procedures known in the art, such as a test for their ability to inhibit the activity of human plasma Syk. […] The IC50 value is the concentration (in nM) of the compound required to provide 50% inhibition of human Syk proteolytic activity.
Potency of candidate molecules for inhibiting Syk tyrosine phosphorylation activity is assessed by measuring the ability of a test compound to inhibit Syk-mediated tyrosine phosphorylation of a Syk-specific substrate.
SYK tyrosine phosphorylation activity is measured using the LANCE™ Technology developed by Perkin Elmer Life and Analytical Sciences (Boston, Mass.). LANCE™ refers to homogeneous time resolved fluorometry applications using techniques such as time-resolved fluorescence resonance energy transfer assay (TR-FRET) (see generally for procedures in Perkin Elmer Application Note—How to Optimize a Tyrosine Kinase Assay Using Time Resolved Fluorescence-Based LANCE Detection, wwww.perkinelmer.com/lifesciences). The assay principle involves detection of a phosphorylated substrate using energy transfer from a phosphospecific europium-labeled antibody to streptavidin-allophycocyanin as an acceptor.
To test the ability of candidate molecules to inhibit SYK tyrosine phosphorylation activity, molecules are reconstituted in 30% DMSO and serially diluted 1:3 with the final dilution containing DMSO in the absence of the candidate molecule. The final DMSO concentration in the assay is 3%. Kinase assays are performed as a two part reaction. The first reaction is a kinase reaction and which comprises of a candidate molecule, full length active recombinant SYK enzyme (Millipore, Calif.) and biotin-labeled SYK-specific substrate biotin-[…]-OH. The second reaction involves termination of the kinase reaction and the simultaneous addition of the detection reagents-europium-labeled anti-phosphotyrosine reagent (Eu-W1024-PY100, Perkin Elmer, Boston, Mass.) and Streptavidin-Allophycocyanin detection reagent (SA-APC, Prozyme, Calif.). The kinase reaction is performed in a black U-bottom 96-well microtitre plate. The final reaction volume is 50 μL and contains a final concentration of 1 nM active SYK enzyme, 550 nM SYK-substrate, and 100 μM ATP diluted in a buffer containing 50 mM Tris pH 7.5, 5 mM MgCl2, and 1 mM DTT. The reaction is allowed to proceed for 1 hour at room temperature. The quench buffer contains 100 mM Tris pH 7.5, 300 mM NaCl2, 20 mM EDTA, 0.02% Brij35, and 0.5% BSA. The detection reagents are added to the reaction mixture at the following dilutions-1:500 for Eu-W1024-PY100 and 1:250 for SA-APC. The kinase reaction is terminated by the addition of 50 μL quench buffer containing the detection reagents. The detection is allowed to proceed for 1 hr at room temperature. Detection of the phosphorlated substrate in the absence and presence of inhibitors is measured in the TR-FRET instrument, Analyst HT (Molecular Probes, Sunnyvale, Calif.) and the condition for measurements are set up using CriterionHost Release 2.0 (Molecular Probes, Sunnyvale, Calif.). The settings used are a follows: excitation 360 nm, emission 665-7.5 nm, beam splitter 350 nm 50/50, flash 100 pulses, delay 60 us, integration 400 us, z-height 2 mm. Inhibition of SYK-tyrosine kinase activity is calculated as the maximum response observed in the presence of inhibitor, compared to that in the absence of inhibitor. IC50s were derived by non-linear regression analysis.

| SMILES | pIC50 |
| --- | --- |
| COc1nc(NC2CCCCC2N)nc(Nc2cc(C)cc(C)c2)c1C(N)=O (centres unmarked) [Example 65, 2-(2-aminocyclohexylamino)-4-(3,5-dimethylphenylamino)-6-methoxypyrimidine-5-carboxamide] | 7.00 to 8.00 |
| Cc1cccc(Nc2nc(NC[C@H](C)N)nc(OCCO)c2C(N)=O)c1 [Example 53, (S)-4-(m-toluidino)-2-(2-aminopropylamino)-6-(2-hydroxyethoxy)pyrimidine-5-carboxamide] | < 6.00 |
| CC[C@@H](Nc1nc(Nc2cccc(-n3nccn3)c2)c(C(N)=O)c(=O)[nH]1)C(N)=O [Example 8, (R)-4-(3-(2H-1,2,3-triazol-2-yl)phenylamino)-2-(1-amino-1-oxobutan-2-ylamino)-6-oxo-1,6-dihydropyrimidine-5-carboxamide] | 7.00 to 8.00 |
| CC(C)C[C@@H](Nc1nc(Nc2cccc(-n3cccn3)c2)c(C(N)=O)c(=O)[nH]1)C(N)=O [Example 32] | 8.00 to 9.00 |
| CC(C)C[C@@H](Nc1nc(Nc2ccn(C)n2)c(C(N)=O)c(=O)[nH]1)C(N)=O [Example 117, (R)-2-(1-amino-4-methyl-1-oxopentan-2-ylamino)-4-(1-methyl-1H-pyrazol-3-ylamino)-6-oxo-1,6-dihydropyrimidine-5-carboxamide] | 6.00 to 7.00 |
| CC(=O)N(C)c1ccc(Nc2nc(NC3CC3)c(C(N)=O)c(=O)[nH]2)cc1 [Example 58, 4-(cyclopropylamino)-2-(4-(N-methylacetamido)phenylamino)-6-oxo-1,6-dihydropyrimidine-5-carboxamide] | < 6.00 |
| COc1ccc(Nc2nc(N[C@H](CC(C)C)C(N)=O)[nH]c(=O)c2C(N)=O)cn1 [Example 110] | 8.00 to 9.00 |
| CC(=O)N1CCN(c2ccc(Nc3nc(Nc4cc(C)cc(C)c4)c(C(N)=O)c(=O)[nH]3)cc2)CC1 [Example 59, 2-(4-(4-acetylpiperazin-1-yl)phenylamino)-4-(3,5-dimethylphenylamino)-6-oxo-1,6-dihydropyrimidine-5-carboxamide] | < 6.00 |
| CC(C)C[C@@H](Nc1nc(Nc2ccc3c(c2)OCO3)c(C(N)=O)c(=O)[nH]1)C(N)=O [Example 79, (R)-2-(1-amino-4-methyl-1-oxopentan-2-ylamino)-4-(benzo[d][1,3]-dioxol-5-ylamino)-6-oxo-1,6-dihydropyrimidine-5-carboxamide] | > 9.00 |
| CC(C)C[C@@H](Nc1nc(Nc2ccc3c(c2)OCCO3)c(C(N)=O)c(=O)[nH]1)C(N)=O [Example 78, (R)-2-(1-amino-4-methyl-1-oxopentan-2-ylamino)-4-(2,3-dihydrobenzo[b][1,4]dioxin-6-ylamino)-6-oxo-1,6-dihydropyrimidine-5-carboxamide] | 8.00 to 9.00 |
| CC(C)C[C@@H](Nc1nc(Nc2ccc(-c3ccncc3)cc2)c(C(N)=O)c(=O)[nH]1)C(N)=O [Example 111, (R)-2-(1-amino-4-methyl-1-oxopentan-2-ylamino)-6-oxo-4-(4-(pyridin-4-yl)phenylamino)-1,6-dihydropyrimidine-5-carboxamide] | 8.00 to 9.00 |
| COc1nc(N[C@@H]2CCCC[C@@H]2N)nc(Nc2cccc(-n3nccn3)c2)c1C(N)=O [Example 3, 2-((1R,2S)-2-aminocyclohexylamino)-4-(3-(2H-1,2,3-triazol-2-yl)phenylamino)-6-methoxypyrimidine-5-carboxamide] | 7.00 to 8.00 |
| COCCOc1ccc(Nc2nc(N[C@H](CC(C)C)C(N)=O)[nH]c(=O)c2C(N)=O)cc1 [Example 93, (R)-2-(1-amino-4-methyl-1-oxopentan-2-ylamino)-4-(4-(2-methoxyethoxy)phenylamino)-6-oxo-1,6-dihydropyrimidine-5-carboxamide] | 8.00 to 9.00 |
| CC(C)[C@H](CN)Nc1nc(Nc2cccc(-n3nccn3)c2)c(C(N)=O)c(=O)[nH]1 [Example 22, (R)-4-(3-(2H-1,2,3-triazol-2-yl)phenylamino)-2-(1-amino-3-methylbutan-2-ylamino)-6-oxo-1,6-dihydropyrimidine-5-carboxamide] | 8.00 to 9.00 |
| CC[C@@H](Nc1nc(Nc2ccc(-n3ccnc3)cc2)c(C(N)=O)c(=O)[nH]1)C(N)=O [Example 116, (R)-2-(1-amino-1-oxobutan-2-ylamino)-4-(4-(1H-imidazol-1-yl)phenylamino)-6-oxo-1,6-dihydropyrimidine-5-carboxamide] | 8.00 to 9.00 |

Second part, the molecule after the results:

| pIC50 | SMILES |
| --- | --- |
| > 9.00 | CC(C)C[C@@H](Nc1nc(Nc2ccc3cn[nH]c3c2)c(C(N)=O)c(=O)[nH]1)C(N)=O [Example 35, (R)-4-(1H-indazol-6-ylamino)-2-(1-amino-4-methyl-1-oxopentan-2-ylamino)-6-oxo-1,6-dihydropyrimidine-5-carboxamide] |
| 8.00 to 9.00 | CC[C@@H](Nc1nc(Nc2ccc(OC)cc2)c(C(N)=O)c(=O)[nH]1)C(N)=O [Example 90, (R)-2-(1-amino-1-oxobutan-2-ylamino)-4-(4-methoxyphenylamino)-6-oxo-1,6-dihydropyrimidine-5-carboxamide] |
| < 6.00 | NC(=O)c1c(O)nc(NC2CCCCC2N)nc1NC1CC1 (centres unmarked) [Example 48, 2-(2-aminocyclohexylamino)-4-(cyclopropylamino)-6-hydroxypyrimidine-5-carboxamide] |
| 8.00 to 9.00 | CC(C)C[C@@H](Nc1nc(Nc2ccc(-c3ccccn3)cc2)c(C(N)=O)c(=O)[nH]1)C(N)=O [Example 113, (R)-2-(1-amino-4-methyl-1-oxopentan-2-ylamino)-6-oxo-4-(4-(pyridin-2-yl)phenylamino)-1,6-dihydropyrimidine-5-carboxamide] |
| 7.00 to 8.00 | Cc1cc(C)cc(Nc2nc(NCC(N)=O)[nH]c(=O)c2C(N)=O)c1 [Example 49, 2-(2-amino-2-oxoethylamino)-4-(3,5-dimethylphenylamino)-6-oxo-1,6-dihydropyrimidine-5-carboxamide] |
| < 6.00 | CC(=O)N1CCN(c2ccc(Nc3nc(Nc4ccc(N5CCN(C(C)=O)CC5)cc4)c(C(N)=O)c(=O)[nH]3)cc2)CC1 [Example 46, 2,4-bis(4-(4-acetylpiperazin-1-yl)phenylamino)-6-oxo-1,6-dihydropyrimidine-5-carboxamide] |
| < 6.00 | CC(=O)N(C)c1ccc(Nc2nc(NC3CC3)[nH]c(=O)c2C(N)=O)cc1 [Example 43, 2-(cyclopropylamino)-4-(4-(N-methylacetamido)phenylamino)-6-oxo-1,6-dihydropyrimidine-5-carboxamide] |
| < 6.00 | Cc1cc(C)cc(Nc2nc(NC3CC3)[nH]c(=O)c2C(N)=O)c1 [Example 60, 2-(cyclopropylamino)-4-(3,5-dimethylphenylamino)-6-oxo-1,6-dihydropyrimidine-5-carboxamide] |
| 8.00 to 9.00 | CC[C@@H](Nc1nc(Nc2cccc(-n3cccn3)c2)c(C(N)=O)c(=O)[nH]1)C(N)=O [Example 34] |
| < 6.00 | COc1nc(Nc2ccc(N3CCN(C(C)=O)CC3)cc2)nc(Nc2cccc(C)c2)c1C(N)=O [Example 74, 4-(m-toluidino)-2-(4-(4-acetylpiperazin-1-yl)phenylamino)-6-methoxypyrimidine-5-carboxamide] |
| > 9.00 | CC(C)[C@@H](Nc1nc(Nc2ccc3ncsc3c2)c(C(N)=O)c(=O)[nH]1)C(N)=O [Example 30] |
| 6.00 to 7.00 | CNC(=O)[C@@H](CC(C)C)Nc1nc(Nc2ccc3[nH]ncc3c2)c(C(N)=O)c(=O)[nH]1 [Example 105, (R)-4-(1H-indazol-5-ylamino)-2-(4-methyl-1-(methylamino)-1-oxopentan-2-ylamino)-6-oxo-1,6-dihydropyrimidine-5-carboxamide] |
| 8.00 to 9.00 | CC(C)[C@@H](Nc1nc(Nc2cccc(-c3ccccn3)c2)c(C(N)=O)c(=O)[nH]1)C(N)=O [Example 96, (R)-2-(1-amino-3-methyl-1-oxobuan-2-ylamino)-6-oxo-4-(3-(pyridin-2-yl)phenylamino)-1,6-dihydropyrimidine-5-carboxamide] |
| < 6.00 | CCNc1nc(Nc2cccc(C)c2)c(C(N)=O)c(OCCO)n1 [Example 75, 4-(m-toluidino)-2-(ethylamino)-6-(2-hydroxyethoxy)pyrimidine-5-carboxamide] |
